Measurements from paper PMC8097023, “Structures of a non-ribosomal peptide synthetase condensation domain suggest the basis of substrate selectivity” (Nature Communications, 2021).

Assays:
[1] = target: T1, PCP2-C3 didomain of fuscachelin NRPS FscG (Thermobifida fusca, UniProt Q47NR9); test: X-ray crystal structure, […] Å; assay type: binding; settings: covalent; PPant on S2514 of PCP2; arm at C3 acceptor entrance, kept out of the active site by R2577
T1 construct: gene Tfu_1867; PCP2-C3 didomain fragment; C3 = residues 2558-2999, PPant site S2514; His-SUMO tag (pOPIN-S) cleaved; made in E. coli BL21(DE3) entD-; monomeric, two copies in the asymmetric unit, PCP2 at the acceptor site of the other chain
T1 sequence (Q47NR9 2481-3008): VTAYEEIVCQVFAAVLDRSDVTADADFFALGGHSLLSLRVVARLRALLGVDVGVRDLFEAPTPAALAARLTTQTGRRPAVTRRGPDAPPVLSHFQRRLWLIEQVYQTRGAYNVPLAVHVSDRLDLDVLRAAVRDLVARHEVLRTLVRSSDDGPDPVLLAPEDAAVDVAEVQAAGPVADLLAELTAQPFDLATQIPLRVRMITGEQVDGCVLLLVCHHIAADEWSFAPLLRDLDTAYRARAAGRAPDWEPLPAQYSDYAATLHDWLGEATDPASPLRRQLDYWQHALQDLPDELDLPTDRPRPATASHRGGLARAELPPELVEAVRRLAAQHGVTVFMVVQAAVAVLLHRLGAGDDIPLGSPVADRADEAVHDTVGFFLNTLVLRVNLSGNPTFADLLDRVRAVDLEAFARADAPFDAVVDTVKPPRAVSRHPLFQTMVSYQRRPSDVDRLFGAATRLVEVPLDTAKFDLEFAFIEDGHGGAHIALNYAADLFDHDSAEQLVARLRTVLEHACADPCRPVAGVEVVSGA

[2] = target: T2, PCP2-C3 didomain of fuscachelin NRPS FscG (Thermobifida fusca, UniProt Q47NR9, R2577G); test: X-ray crystal structure, […] Å; assay type: binding; settings: covalent; PPant on S2514 of PCP2, fully extended through the acceptor channel into the C3 active site
T2 construct: gene Tfu_1867; PCP2-C3 didomain fragment; C3 = residues 2558-2999, PPant site S2514; His-SUMO tag (pOPIN-S) cleaved; made in E. coli BL21(DE3) entD-; monomeric, two copies in the asymmetric unit, PCP2 at the acceptor site of the other chain
T2 sequence (Q47NR9 entry or part of it R2577G): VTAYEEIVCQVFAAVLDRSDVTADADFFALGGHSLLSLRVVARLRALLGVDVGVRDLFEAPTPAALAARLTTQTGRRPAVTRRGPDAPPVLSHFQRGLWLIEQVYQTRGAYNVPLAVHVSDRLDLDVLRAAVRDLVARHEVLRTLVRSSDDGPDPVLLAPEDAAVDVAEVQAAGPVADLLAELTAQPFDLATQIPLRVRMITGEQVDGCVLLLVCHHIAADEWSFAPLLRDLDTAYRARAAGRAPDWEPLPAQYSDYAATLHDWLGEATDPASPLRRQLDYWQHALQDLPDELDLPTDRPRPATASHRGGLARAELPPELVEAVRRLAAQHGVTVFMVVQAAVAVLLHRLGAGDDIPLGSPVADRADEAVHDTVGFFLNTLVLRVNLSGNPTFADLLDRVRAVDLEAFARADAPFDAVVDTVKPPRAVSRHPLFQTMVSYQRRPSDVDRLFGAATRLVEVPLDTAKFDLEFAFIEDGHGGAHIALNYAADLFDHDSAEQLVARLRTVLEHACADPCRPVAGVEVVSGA

SMILES: CC(C)(COP(=O)(O)O)[C@@H](O)C(=O)NCCC(=O)NCCS [PPant]
- X-ray crystal structure, 2.2 Å [1]: Having confirmed the presence of a PPant arm, we modeled this into the electron density
- X-ray crystal structure, 2 Å [2]: PPant moiety, which now fully extends thought the acceptor channel into the active site
